From PubChem BioAssay AID504645 (Southern Research Specialized Biocontainment Screening …, 2011)
pIC50: −log10 of the molar value. “And” between values parts separate entries of the source, which are not always exact repeats. Equal entries are not always repeated. Where a SMILES comes first, the peptide text is derived from it. The star is where a group is joined. Cbz = O=C(OCc1ccccc1)*

Test system: M. tuberculosis H37Rv growth inhibition, glycerol-free medium
Assay: Mycobacterium tuberculosis H37Rv growth inhibition, glycerol free medium, confirmatory screen (AID 504645);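 further: bacteria grown one week before the viability dye was added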
Settings: for IC90: measured here: 90% growth inhibition

SMILES	pIC50	IC90
CC(C)CCNC(=O)CSc1nc2ccccc2c(=O)[nH]1	5.64	3830 nM
CC(C)OC(=O)CSc1ncnc2c1cnn2-c1ccccc1	4.75	> 25000 nM
CCC(C)Nc1ccc(NC(C)CC)cc1 (stereo not given)	5.90	1940 nM
CCc1ccc(/C=C2/C(=O)N(C)C(=S)N2CC(=O)OC)s1	5.72	4610 nM
Cc1ccc(NC(=O)C2C3/C=C\CCCCC32)cc1C (stereo not given)	5.76	> 25000 nM
CCOC(=O)COc1ccc(/C=C2\NC(=S)N(CC)C2=O)cc1	5.58	4740 nM
O=C(NCCc1ccc(Cl)cc1)c1ccc(CNc2c(N3CCOCC3)c(=O)c2=O)cc1	5.30	6950 nM
O=C(NCC(c1cccs1)N1CCOCC1)c1cc([N+](=O)[O-])cc([N+](=O)[O-])c1 (stereo not given)	6.39	910 nM
O=C(c1ccc(CNc2c(N3CCCC3)c(=O)c2=O)cc1)N1CCN(C2CCCCC2)CC1		> 25000 nM
CC1CCCN(C(=O)c2ccc(CNc3c(N4CCCCC4)c(=O)c3=O)cc2)C1 (stereo not given)	5.59	> 25000 nM
CC[N+](C)(CC)CCCCOc1ccc2c(c1)C(=O)c1cc(OCCCC[N+](C)(CC)CC)ccc1-2	5.88	2130 nM
CCOC(=O)CSc1ncnc2c1cnn2-c1ccc(Cl)cc1	5.30	> 25000 nM
Cc1ccc(C(=O)N/N=C(/CC(=O)c2cccs2)C(F)(F)F)cc1	5.68	2810 nM
CC(C)NC(=O)c1sc(=S)n2c1[nH]c(=O)c1ccc(C(=O)NCCc3ccc(Cl)cc3)cc12	6.51	530 nM
Cc1ccc2c(c1)c(C1=c3ccccc3=NC1=O)c(O)n2C	5.84	3610 nM
CC1CCN(C(=O)c2ccc(CNc3c(N4CCCC4)c(=O)c3=O)cc2)CC1	5.23	6690 nM
COC(=O)C1CC(=O)N(c2ccc(OCc3ccccc3Cl)cc2)C1 (stereo not given)	6.12	3010 nM
CC1CC(C)CN(C(=O)c2ccc(CNc3c(N4CCCC4)c(=O)c3=O)cc2)C1 (stereo not given)	5.20	> 25000 nM
COC(=O)CSc1ncnc2c1cnn2-c1ccc(C)cc1C	5.35	6950 nM
CC1CCCN(C(=O)C2CCC(CNc3c(N4CCCCC4)c(=O)c3=O)CC2)C1 (stereo not given)	4.72	> 25000 nM
S=c1nc[nH]c2nc[nH]c12	5.83	1720 nM
O=C1C(Br)=Cc2cccc3cccc1c23	6.46	1130 nM

SMILES	pIC50	IC90
Cc1cccc(/C=C/C(=O)c2ccc([N+](=O)[O-])o2)c1	6.35	650 nM
COc1ccc(N2CCN(C(=O)c3ccc(CNc4c(N5CCOCC5)c(=O)c4=O)cc3)CC2)cc1	5.47	> 25000 nM
COC(=O)C(C)Sc1ncnc2c1nnn2-c1ccc(F)cc1 (stereo not given)	5.62	4380 nM
CCC(Sc1ncnc2c1nnn2-c1ccc(F)cc1)C(=O)OC (stereo not given)	4.92	> 25000 nM
CCOC(=O)CNC(=O)[C@H](Cc1ccccc1)NC(=O)OCc1ccccc1 (Cbz-Phe-Gly-OEt)	5.67	3090 nM
CCOc1ccc(-c2cc(C)[n+](CCc3ccc(OC)c(OC)c3)c(-c3ccc(OCC)cc3)c2)cc1	6.18	1030 nM
CC(=NCc1ccc2c(c1)OCO2)C1=C(O)c2ccccc2C1=O	6.48	2350 nM
Cc1cc(Br)ccc1NC(=O)c1cnc(N2CCN(c3ccccn3)CC2)c2ccccc12	5.90	2000 nM
CNc1nc(SCc2ccccc2Cl)nc2c1CCCC2	5.97	2330 nM
Cc1cccc(-c2oc3ccc(-c4ccc5c(c4)OCO5)cc3c2C#Cc2cncn2C)c1	5.86	1860 nM
CCOC(=O)C(C)Sc1ncnc2c1nnn2-c1ccc(F)cc1 (stereo not given)	5.92 and 5.34	2920 nM and 8280 nM
CCOC1OC(=O)C(Cl)=C1Nc1ccccc1C (stereo not given)	5.65	5590 nM
Cc1nc(SCC(=O)NC2CCCCC2)[nH]c(=O)c1C	6.17 and 5.62	1070 nM and 3730 nM
CCOC(=O)CSc1ncnc2c1cnn2-c1ccc(C)cc1C	5.35	6980 nM
CC(=O)c1ccc(NC(=O)c2ccc(CNc3c(N4CCOCC4)c(=O)c3=O)cc2)cc1	4.70	> 25000 nM
CC1CCN(C(=O)C2CCN(c3nnc(-n4cccc4)s3)CC2)CC1	5.79	3340 nM
CCc1c(C)nc(SCC(=O)Nc2ccc3c(c2)OCCO3)[nH]c1=O	4.71	> 25000 nM
CCOC(=O)CSc1ncnc2c1cnn2-c1ccc(C)cc1	5.00	> 25000 nM
COC(=O)C(C)Oc1ccc(Cc2ncc(C(F)(F)F)cc2Cl)cc1 (stereo not given)	5.58	4010 nM
O=C(c1ccc(CNc2c(N3CCOCC3)c(=O)c2=O)cc1)N1CC=C(c2ccccc2)CC1	5.95	2170 nM
O=C(CSc1nc2ccccc2c(=O)[nH]1)NC1CCCCC1	7.15	130 nM
Cc1ccc2ccc3ccc(C)nc3c2n1	6.28	780 nM

SMILES	pIC50	IC90
Cc1cccc(N2CCN(C(=O)c3ccc(CNc4c(N5CCC(C)CC5)c(=O)c4=O)cc3)CC2)c1C		> 25000 nM
CCOC(=O)CSc1ncnc2c1nnn2-c1ccc(F)cc1	5.44	6160 nM
O=C(c1ccc(CNc2c(N3CCCC3)c(=O)c2=O)cc1)N1CCc2ccccc2C1	5.36	> 25000 nM
Nc1c(C(=O)NC2CCCCC2)nsc1C(=O)OCC(=O)NC1CCCCC1	5.91	2640 nM
Cc1nc(SCC(=O)NC2CCCC2)[nH]c(=O)c1C	5.00	16000 nM
CCOC(=O)COn1c2c(c3c4no[n+]([O-])c4ccc31)CCCC2	5.73	2860 nM
O=C(CSc1nc2c(c(=O)[nH]1)CCC2)Nc1ccc(F)cc1	4.77	> 25000 nM
CCOC(=O)CSc1ncnc2c1cnn2-c1ccccc1	4.88	> 25000 nM
COC(=O)c1cc(=O)n(-c2ccc(F)cc2)c(=Nc2ccc(F)cc2)s1	6.19	1000 nM
O=C(/C=C/c1ccccc1)N1CCN(CCN2C(=O)c3cccc4cccc(c34)C2=O)CC1	5.68	5380 nM
Cc1cc(C)n2nc(N)c(N=Nc3ccccc3)c2n1	5.60	3560 nM
COc1cc(NC(=O)C/C(C)=N/NC(=O)c2ccccn2)c(OC)cc1Cl	5.56	7910 nM
Cc1nn2c(NCc3ccccn3)cc(C(C)C)nc2c1-c1ccccc1	5.71	2540 nM
Cc1ccc(NC(=O)COC(=O)CCc2c[nH]c3ccccc23)cc1[N+](=O)[O-]	5.72	4350 nM
CCc1c(C)nc(SCC(=O)NC2CCCC2)[nH]c1=O	5.65	3210 nM
CCOC(=O)c1ccc(NC(=O)Cn2ncc(Cl)c(Cl)c2=O)cc1	6.36	1170 nM
COc1ccc(-n2nnc3c(SCC(=O)OCc4ccccc4)ncnc32)cc1	5.55	> 25000 nM
O=C(CSc1nc2ccccc2c(=O)[nH]1)NCc1ccc(Cl)cc1	6.20 and 5.66	900 nM and 3160 nM
CCOc1ccc(NC(=O)CSc2nc(O)c(C)c(=O)n2-c2ccc(F)cc2)cc1		> 25000 nM
COC(=O)CCc1nc2c(C#N)c(-c3ccc(Cl)cc3)ccn2n1	5.60	3800 nM
